Results on 10 compounds are retold here after patent publication US6150335A, “Tic-containing opioid dipeptide derivatives useful as analgesics” (Astra AB, priority 1996, dated 2000).

One data set relates to mice. The following applies: S. D. Comer et al. 1993; cited from earlier work.
In the next data set the test system is guinea pig ileum (GPI). The data set can be described thus: Guinea pig ileum (GPI) bioassay: inhibition of electrically evoked contractions. Format: cell-based. The following applies: normalized with [Leu5]enkephalin standard, effect primarily μ-mediated. The protocol:
(§1) Bioassays based on inhibition of electrically evoked contractions of the mouse vas deferens (MVD) and of the guinea pig ileum (GPI) were performed. In the GPI assay the opioid effect is primarily mediated by μ opioid receptors, whereas in the MVD assay the inhibition of the contractions is mostly due to interaction with δ opioid receptors.
(§2) The GPI and MVD bioassays were carried out as reported in P. W. Schiller et al., Biochem. Biophys. Res. Commun. 85, 1332-1338 (1978) and J. DiMaio et al., J. Med. Chem. 25, 1432-1438 (1982). A log-dose response curve was determined with [Leu^5 ]enkephalin as standard for each ileum and vas preparation, and IC50 values of the compounds being tested were normalized according to A. A. Waterfield et al., Eur. J. Pharmacol. 58, 11-18 (1979).

In the next data set the test system is mouse vas deferens (MVD). In words: Mouse vas deferens (MVD) bioassay: inhibition of electrically evoked contractions. Format: cell-based. The following applies: for IC50: inhibition of electrically evoked contractions, normalized with [Leu5]enkephalin standard, effect mostly δ-mediated; for GPI/MVD IC50 ratio: ratio of GPI IC50 to MVD IC50. The method, then:
as §1, §2

For the next data set, the target named is T1, μ opioid receptor (Rattus norvegicus, UniProt P33535).
T1 construct: Male Sprague-Dawley rats (300-350 g) from the Canadian Breeding Laboratories were decapitated and after removal of the cerebellum the brains were homogenized; from tissue; host or cells: rat brain (without cerebellum) membranes, male Sprague-Dawley
The data set can be described thus: μ opioid receptor binding assay, displacement of [3H]DAMGO from rat brain membranes. The following applies: [3H]DAMGO 0.7 nM, Cheng-Prusoff. The protocol: (§3) μ and δ opioid receptor binding constants (Ki^μ,Ki^δ) of the compounds were determrined by displacement of relatively selective μ and δ radioligands from binding sites in rat brain membrane preparations calculated from the measured IC50 values on the basis of the equation by Cheng and Prusoff, (Y. C. Cheng and W. H. Prusoff Biochem. Pharmnacol. 22, 3099-3102 (1973)).
(§4) The μ-, δ- and κ-opioid receptor affinities of all new analogs were determined in binding assays based on displacement of μ-, δ- and κ-selective radioligands from rat brain membrane binding sites. In the case of κ-ligands guinea pig brain homogenates were used, since the relative proportion of κ-binding sites is higher in guinea pig brain than in rat brain. The experimental procedure being used in our laboratory represents a modified version of the binding assay described by Pasternak et al. (Mol. Pharnacol. 11, 340-351 (1975)). Male Sprague-Dawley rats (300-350 g) from the Canadian Breeding Laboratories were decapitated and after removal of the cerebellum the brains were homogenized in 30 volumes of ice-cold standard buffer (50 mnM Tris HCl , pH 7.7). After centrifugation at 30,000×g for 30 min at 4° C. the membranes were reconstituted in the original volume of standard buffer and incubated for 30 min at 37° C. (to release bound endogenous ligands). Subsequent centrifugation and resuspension of the pellet in the initial volume of fresh standard buffer yielded the final membrane suspension. Aliquots (2 ml) of the membrane preparations were incubated for 1-2 h at 25° C. with 1 ml standard buffer containing the peptide to be tested and one of the following radioligands at the final concentration indicated: [^3 H]DAMGO, μ-selective, 0.7 nM; [^3 H]DSLET, μ-selective, 1.0 nM; and [^3 H]U69,563, κ-selective, 0.5 nM. The incubation was terminated by filtration through Whatman GF/B filters under vacuum at 4° C. Following two washings with 5 ml portions of ice-cold standard buffer the filters were transferred to scintillation vials and treated with 1 ml Protosol (New England Nuclear) for 30 min prior to addition of 0.5 ml acetic acid and 10 ml Aquasol (New England Nuclear). After shaking for 30 min the vials were counted at an efficiency of 40-45%. All experiments were performed in duplicate and repeated at least three times. Specific binding of each of the three radioligands was defined by performing incubations in the presence of cold DAMGO, DSLET and U69,563, respectively, at a concentration of 1 micromolar. Values of half-maximal inhibition (IC50) of specific binding were obtained graphically from semilogarithmic plots. From the measured IC50-values, binding inhibition constants (Ki) were calculated based on Cheng and Prusoff's equation (Biochem. Pharmacol. 22, 3099-3102 (1973)). Ratios of the Ki -values determined in the μ-, δ- and κ-representative binding assays are a measure of the receptor selectivity of the compound under investigation (e.g. Ki^μ /Ki^μ indicates the selectivity for δ-receptors versus μ-receptors).
(Displacement assays read how much labelled ligand stays bound in the presence of the test substance.)

In data set [1] the target is T2, δ opioid receptor (Rattus norvegicus, UniProt P33533).
T2 construct: Male Sprague-Dawley rats (300-350 g) from the Canadian Breeding Laboratories were decapitated and after removal of the cerebellum the brains were homogenized; from tissue; host or cells: rat brain (without cerebellum) membranes, male Sprague-Dawley
The data set can be described thus: δ opioid receptor binding assay, displacement of [3H]DSLET from rat brain membranes. The following applies: for Ki: rat brain membranes, [3H]DSLET 1.0 nM, Cheng-Prusoff; for Ki^μ/Ki^δ: δ versus μ receptor selectivity. The method, then: as §3
as §4, with “[…];” for “[^3 H]DSLET, μ-selective, 1.0 nM;”

Data set [2] relates to δ opioid receptor. The following applies: reported at 23rd European Peptide Symposium 1994; cited from earlier work.
The next data set relates to mouse tail flick test. To be noted: J. Kamei et al. 1995; cited from earlier work.

For orientation: IC50 means the point on the concentration scale where inhibition reaches its midpoint. Low readings indicate inhibition by little substance, high ones a need for much substance. The Ki is the equilibrium dissociation constant of an inhibitor or competing ligand from its target. Read a high Ki as weaker binding.

Each structure is given as a SMILES string. Where a SMILES comes first, the peptide text is derived from it. [ ]: non-standard residue; d: D form. The star is where a group is joined. Tic = O=C(O)[C@@H]1Cc2ccccc2CN1; NHPhenethyl = c1ccc(CCN*)cc1

T2 sequence (P33533 whole entry): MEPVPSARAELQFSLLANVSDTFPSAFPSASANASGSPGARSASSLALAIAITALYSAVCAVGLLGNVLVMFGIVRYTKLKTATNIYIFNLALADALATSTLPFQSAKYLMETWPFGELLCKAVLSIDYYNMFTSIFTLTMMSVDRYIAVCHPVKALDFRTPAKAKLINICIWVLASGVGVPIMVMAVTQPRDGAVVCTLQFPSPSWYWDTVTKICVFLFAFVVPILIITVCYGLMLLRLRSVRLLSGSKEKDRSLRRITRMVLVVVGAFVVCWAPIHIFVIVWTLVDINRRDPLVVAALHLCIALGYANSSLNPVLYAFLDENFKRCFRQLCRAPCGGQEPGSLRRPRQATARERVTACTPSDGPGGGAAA
T1 sequence (P33535 whole entry): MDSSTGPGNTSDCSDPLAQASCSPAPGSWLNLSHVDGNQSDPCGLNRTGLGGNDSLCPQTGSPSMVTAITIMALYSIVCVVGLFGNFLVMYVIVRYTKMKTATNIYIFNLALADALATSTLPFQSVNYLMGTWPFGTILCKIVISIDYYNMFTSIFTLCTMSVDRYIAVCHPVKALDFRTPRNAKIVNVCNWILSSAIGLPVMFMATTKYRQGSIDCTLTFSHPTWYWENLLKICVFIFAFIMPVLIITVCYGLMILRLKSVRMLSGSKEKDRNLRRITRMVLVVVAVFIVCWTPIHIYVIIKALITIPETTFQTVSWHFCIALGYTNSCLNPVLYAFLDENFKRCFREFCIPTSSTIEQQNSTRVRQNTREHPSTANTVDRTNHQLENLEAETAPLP

With `C=CCN1C[C@H](C)N([C@H](c2ccc(C(=O)N(CC)CC)cc2)c2cccc(O)c2)C[C@H]1C` (racemic) [BW 373U86, (±)-4-(a-R*)-a-(2S*,5R*)-4-allyl-2,5-dimethyl-1-piperazinyl)-3-hydroxybenzyl)-N,N-diethylbenzamide], the toxicity in mice result with mice is “produced significant toxicity, manifested behaviorally as convulsions and barrel rolling”.
Compound `N[C@@H](Cc1ccc(O)cc1)C(=O)N1Cc2ccccc2C[C@H]1C(=O)N[C@H]1CCc2ccccc2C1` [Example 19, H-Tyr-Tic-2-S-At (At = aminotetralin)] gave an IC50 with guinea pig ileum (GPI) of 1710 ± 230 nM. Moreover, in the data set with mouse vas deferens (MVD), half-maximal inhibition (IC50) was put at 38.1 nM and the “GPI/MVD IC50 ratio” value is listed as 44.9. On μ opioid receptor, this compound came in with a Ki of 55.8 ± 6.3 nM. Further, at δ opioid receptor [1], the Ki came out at 4.55 nM and the “Ki^μ/Ki^δ” value was found to be 12.3.
As to `N[C@@H](Cc1ccc(O)cc1)C(=O)N1Cc2ccccc2C[C@H]1C(=O)N[C@@H]1CCc2ccccc2C1` [Example 20, H-Tyr-Tic-2-R-At (At = aminotetralin)], in the data set with guinea pig ileum (GPI), the “GPI IC50” value is “partial”. This compound returned an IC50 with mouse vas deferens (MVD) of 36.3 ± 3.58 nM. Further, on μ opioid receptor, the Ki amounted to 26.3 ± 2.3 nM. Also, at δ opioid receptor [1], affinity was put at a Ki of 1.72 ± 0.17 nM and the “Ki^μ/Ki^δ” value is reported as 15.3.
For the compound `N[C@@H](Cc1ccc(O)cc1)C(=O)N1Cc2ccccc2C[C@H]1C(=O)NCC(C1CCCCC1)C1CCCCC1` [Example 23], the concentration for half-maximal inhibition (IC50) in the data set on guinea pig ileum (GPI) was 1580 ± 610 nM. Besides, in the data set on mouse vas deferens (MVD), the IC50 stood at 21.5 ± 6.8 nM and the “GPI/MVD IC50 ratio” value was 73.5. On μ opioid receptor, this compound showed a Ki of 52.4 ± 2.5 nM. For the same compound, on δ opioid receptor [1], the Ki is 11.3 ± 3.3 nM and the “Ki^μ/Ki^δ” value was found to be 4.64.
For `N[C@@H](Cc1ccc(O)cc1)C(=O)N1Cc2ccccc2C[C@H]1C(=O)NCC(c1ccc([N+](=O)[O-])cc1)c1ccc([N+](=O)[O-])cc1` [Example 24], the IC50 with guinea pig ileum (GPI) came to 5200 ± 1100 nM; in the data set on mouse vas deferens (MVD), 8.91 ± 1.53 nM. The “GPI/MVD IC50 ratio” value in the data set on mouse vas deferens (MVD) stood at 584. Further, the Ki at μ opioid receptor came to 635 ± 109 nM; at δ opioid receptor [1], 7.17 ± 0.24 nM. Further, the “Ki^μ/Ki^δ” value at δ opioid receptor [1] stood at 88.6.
`Nc1ccc(C(CNC(=O)[C@@H]2Cc3ccccc3CN2C(=O)[C@@H](N)Cc2ccc(O)cc2)c2ccc(N)cc2)cc1` [Example 25] displayed an IC50 in the data set on guinea pig ileum (GPI) above 10000 nM. For the same compound, in the data set with mouse vas deferens (MVD), 7.81 ± 0.48 nM corresponded to half-maximal inhibition (IC50) and the “GPI/MVD IC50 ratio” value is recorded as above 1280. Also, the Ki on μ opioid receptor was determined as 5340 ± 700 nM. For the same compound, on δ opioid receptor [1], the Ki came out at 2.67 ± 0.83 nM and the “Ki^μ/Ki^δ” value is 2000.
`N[C@@H](Cc1ccc(O)cc1)C(=O)N1Cc2ccccc2C[C@H]1C(=O)NCC(c1ccc(Cl)cc1)c1ccc(Cl)cc1` [Example 26]: the IC50 in the data set on guinea pig ileum (GPI) is above 10000 nM. Further, in the data set on mouse vas deferens (MVD), the IC50 was 397 ± 33 nM and the “GPI/MVD IC50 ratio” value is above 25.2. Also, at μ opioid receptor, affinity was put at a Ki of 1560 ± 60 nM. Moreover, at δ opioid receptor [1], the affinity, expressed as Ki, was 2.82 ± 0.07 nM and the “Ki^μ/Ki^δ” value was 553.
`N[C@@H](Cc1ccc(O)cc1)C(=O)N1Cc2ccccc2C[C@H]1C(=O)NCCc1ccccc1[N+](=O)[O-]` [Example 29]: the IC50 in the data set on guinea pig ileum (GPI) is 1850 ± 540 nM. In addition, in the data set with mouse vas deferens (MVD), the IC50 came to 29.1 ± 10.6 nM and the “GPI/MVD IC50 ratio” value amounted to 63.6. Also, on μ opioid receptor, affinity was put at a Ki of 355 ± 13 nM. Besides, on δ opioid receptor [1], the Ki was 7.7 ± 0.45 nM and the “Ki^μ/Ki^δ” value came to 46.1.
For `N[C@@H](Cc1ccc(O)cc1)C(=O)N1Cc2ccccc2C[C@H]1C(=O)NCCc1ccccc1` [H-Tyr-Tic-NH--CH2 --CH2 --Ph, reference compound] (H-Tyr-[Tic]-NHPhenethyl), the IC50 in the data set with guinea pig ileum (GPI) is 2120 nM. In the data set with mouse vas deferens (MVD), half-maximal inhibition (IC50) required 82 ± 10 nM and the “GPI/MVD IC50 ratio” value is recorded as 25.9. For the same compound, the Ki at μ opioid receptor is 69.1 nM. At δ opioid receptor [1], the Ki turned out to be 5.22 ± 0.02 nM and the “Ki^μ/Ki^δ” value turned out to be 13.2. In addition, the “δ agonist / antagonist properties” value with δ opioid receptor [2] is given as “full, but only moderately potent δ agonist”.
With `CN1CC[C@]2(c3cccc(O)c3)Cc3nc4ccccc4cc3C[C@H]2C1` [TAN-67, 2-methyl-4α,α-(3-hydroxyphenyl)-1,2,3,4,4a,5,12,12aα-octahydroquinolino[2,3,3-g]isoquinoline], the antinociceptive effect result in the data set on mouse tail flick test is recorded as “no significant antinociceptive effect”.
